{
  "source": "PubChem BioAssay AID1963838",
  "about": "(Molecular Pharmacology Branch, DTP, NCI, 2024)",
  "system": "855422-203-R-J1-PDC complex spheroid viability",
  "test": "Anticancer human tumor 855422-203-R-J1-PDC patient-derived bladder carcinoma cell line growth inhibition [POLQ]",
  "settings": "for IC50: curve of first compound; for viability, T/C: stronger effect = lower value",
  "procedure,_shortened": "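Growth inhibition in 3D: complex spheroids (tumor PDC, HUVEC, MSC) treated with POLQ inhibitor combinations; where Cmax unknown, highest tested concentration 10 microM, except SN-38 at 1 microM.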",
  "key": {"[1]": {"settings": "second compound 0.0316 µM, first compound 0.0316 µM"}, "[2]": {"settings": "second compound 0.0316 µM, first compound 0.1 µM"}, "[3]": {"settings": "second compound 0.0316 µM, first compound 0.316 µM"}, "[4]": {"settings": "second compound 0.0316 µM, first compound 1 µM"}, "[5]": {"settings": "second compound 0.0316 µM, first compound 3.16 µM"}, "[6]": {"settings": "second compound 0.0316 µM, first compound 10 µM"}, "[7]": {"settings": "second compound 0.1 µM, first compound 0.0316 µM"}, "[8]": {"settings": "second compound 0.1 µM, first compound 0.1 µM"}, "[9]": {"settings": "second compound 0.1 µM, first compound 0.316 µM"}, "[10]": {"settings": "second compound 0.1 µM, first compound 1 µM"}, "[11]": {"settings": "second compound 0.1 µM, first compound 3.16 µM"}, "[12]": {"settings": "second compound 0.1 µM, first compound 10 µM"}, "[13]": {"settings": "second compound 0.316 µM, first compound 0.0316 µM"}, "[14]": {"settings": "second compound 0.316 µM, first compound 0.1 µM"}, "[15]": {"settings": "second compound 0.316 µM, first compound 0.316 µM"}, "[16]": {"settings": "second compound 0.316 µM, first compound 1 µM"}, "[17]": {"settings": "second compound 0.316 µM, first compound 3.16 µM"}, "[18]": {"settings": "second compound 0.316 µM, first compound 10 µM"}, "[19]": {"settings": "second compound 1 µM, first compound 0.0316 µM"}, "[20]": {"settings": "second compound 1 µM, first compound 0.1 µM"}, "[21]": {"settings": "second compound 1 µM, first compound 0.316 µM"}, "[22]": {"settings": "second compound 1 µM, first compound 1 µM"}, "[23]": {"settings": "second compound 1 µM, first compound 3.16 µM"}, "[24]": {"settings": "second compound 1 µM, first compound 10 µM"}, "[25]": {"settings": "second compound 3.16 µM, first compound 0.0316 µM"}, "[26]": {"settings": "second compound 3.16 µM, first compound 0.1 µM"}, "[27]": {"settings": "second compound 3.16 µM, first compound 0.316 µM"}, "[28]": {"settings": "second compound 3.16 µM, first compound 1 µM"}, "[29]": {"settings": "second compound 3.16 µM, first compound 3.16 µM"}, "[30]": {"settings": "second compound 3.16 µM, first compound 10 µM"}, "[31]": {"settings": "second compound 10 µM, first compound 0.0316 µM"}, "[32]": {"settings": "second compound 10 µM, first compound 0.1 µM"}, "[33]": {"settings": "second compound 10 µM, first compound 0.316 µM"}, "[34]": {"settings": "second compound 10 µM, first compound 1 µM"}, "[35]": {"settings": "second compound 10 µM, first compound 3.16 µM"}, "[36]": {"settings": "second compound 10 µM, first compound 10 µM"}},
  "data": [
    {"molecule": "CC1COCCN1c1cc(-c2ccnn2C)c2ccnc(-c3ccn[nH]3)c2n1", "note": "(centres undefined) + Nc1ccc(C#CCN(C(=O)Cc2ncc(C(F)(F)F)cc2C(F)(F)F)c2ccc(F)cc2)nn1;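 also: spheroids exposed to compounds for seven days before readout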", "values": [
      {"measurement": "IC50", "setting": "second compound 0.0316 µM", "result": 255, "unit": "nM"},
      {"measurement": "IC50", "setting": "second compound 0.1 µM", "result": 275, "unit": "nM"},
      {"measurement": "IC50", "setting": "second compound 0.316 µM", "result": 253, "unit": "nM"},
      {"measurement": "IC50", "setting": "second compound 1 µM", "result": 203, "unit": "nM"},
      {"measurement": "IC50", "setting": "second compound 3.16 µM", "result": 234, "unit": "nM"},
      {"measurement": "IC50", "setting": "second compound 10 µM", "result": 202, "unit": "nM"},
      {"measurement": "viability, T/C", "setting": "[1]", "result": 124, "unit": "%"},
      {"measurement": "viability, T/C", "setting": "[2]", "result": 124, "unit": "%"},
      {"measurement": "viability, T/C", "setting": "[3]", "result": 33.2, "unit": "%"},
      {"measurement": "viability, T/C", "setting": "[4]", "result": 16, "unit": "%"},
      {"measurement": "viability, T/C", "setting": "[5]", "result": 13.6, "unit": "%"},
      {"measurement": "viability, T/C", "setting": "[6]", "result": 12.8, "unit": "%"},
      {"measurement": "viability, T/C", "setting": "[7]", "result": 118, "unit": "%"},
      {"measurement": "viability, T/C", "setting": "[8]", "result": 159, "unit": "%"},
      {"measurement": "viability, T/C", "setting": "[9]", "result": 37.7, "unit": "%"},
      {"measurement": "viability, T/C", "setting": "[10]", "result": 17.4, "unit": "%"},
      {"measurement": "viability, T/C", "setting": "[11]", "result": 11.8, "unit": "%"},
      {"measurement": "viability, T/C", "setting": "[12]", "result": 11.9, "unit": "%"},
      {"measurement": "viability, T/C", "setting": "[13]", "result": 128, "unit": "%"},
      {"measurement": "viability, T/C", "setting": "[14]", "result": 140, "unit": "%"},
      {"measurement": "viability, T/C", "setting": "[15]", "result": 30, "unit": "%"},
      {"measurement": "viability, T/C", "setting": "[16]", "result": 13.2, "unit": "%"},
      {"measurement": "viability, T/C", "setting": "[17]", "result": 11.3, "unit": "%"},
      {"measurement": "viability, T/C", "setting": "[18]", "result": 10.5, "unit": "%"},
      {"measurement": "viability, T/C", "setting": "[19]", "result": 119, "unit": "%"},
      {"measurement": "viability, T/C", "setting": "[20]", "result": 92.5, "unit": "%"},
      {"measurement": "viability, T/C", "setting": "[21]", "result": 23.3, "unit": "%"},
      {"measurement": "viability, T/C", "setting": "[22]", "result": 15.3, "unit": "%"},
      {"measurement": "viability, T/C", "setting": "[23]", "result": 12.6, "unit": "%"},
      {"measurement": "viability, T/C", "setting": "[24]", "result": 8.88, "unit": "%"},
      {"measurement": "viability, T/C", "setting": "[25]", "result": 102, "unit": "%"},
      {"measurement": "viability, T/C", "setting": "[26]", "result": 128, "unit": "%"},
      {"measurement": "viability, T/C", "setting": "[27]", "result": 27.1, "unit": "%"},
      {"measurement": "viability, T/C", "setting": "[28]", "result": 15.1, "unit": "%"},
      {"measurement": "viability, T/C", "setting": "[29]", "result": 10.3, "unit": "%"},
      {"measurement": "viability, T/C", "setting": "[30]", "result": 8.61, "unit": "%"},
      {"measurement": "viability, T/C", "setting": "[31]", "result": 119, "unit": "%"},
      {"measurement": "viability, T/C", "setting": "[32]", "result": 88.8, "unit": "%"},
      {"measurement": "viability, T/C", "setting": "[33]", "result": 25.2, "unit": "%"},
      {"measurement": "viability, T/C", "setting": "[34]", "result": 12.9, "unit": "%"},
      {"measurement": "viability, T/C", "setting": "[35]", "result": 11.1, "unit": "%"},
      {"measurement": "viability, T/C", "setting": "[36]", "result": 10.7, "unit": "%"}
    ]},
    {"molecule": "CC1COCCN1c1cc(C2(S(C)(=N)=O)CC2)nc(-c2ccnc3[nH]ccc23)n1", "note": "(centres undefined) + Nc1ccc(C#CCN(C(=O)Cc2ncc(C(F)(F)F)cc2C(F)(F)F)c2ccc(F)cc2)nn1", "values": [
      {"measurement": "IC50", "setting": "second compound 0.0316 µM", "result": 5250, "unit": "nM"},
      {"measurement": "IC50", "setting": "second compound 0.1 µM", "result": 3920, "unit": "nM"},
      {"measurement": "IC50", "setting": "second compound 0.316 µM", "result": 3050, "unit": "nM"},
      {"measurement": "IC50", "setting": "second compound 1 µM", "result": 3400, "unit": "nM"},
      {"measurement": "IC50", "setting": "second compound 3.16 µM", "result": 2890, "unit": "nM"},
      {"measurement": "IC50", "setting": "second compound 10 µM", "result": 2530, "unit": "nM"},
      {"measurement": "viability, T/C", "setting": "[1]", "result": 104, "unit": "%"},
      {"measurement": "viability, T/C", "setting": "[2]", "result": 98.9, "unit": "%"},
      {"measurement": "viability, T/C", "setting": "[3]", "result": 132, "unit": "%"},
      {"measurement": "viability, T/C", "setting": "[4]", "result": 98.2, "unit": "%"},
      {"measurement": "viability, T/C", "setting": "[5]", "result": 78.2, "unit": "%"},
      {"measurement": "viability, T/C", "setting": "[6]", "result": 14.9, "unit": "%"},
      {"measurement": "viability, T/C", "setting": "[7]", "result": 111, "unit": "%"},
      {"measurement": "viability, T/C", "setting": "[8]", "result": 124, "unit": "%"},
      {"measurement": "viability, T/C", "setting": "[9]", "result": 99.8, "unit": "%"},
      {"measurement": "viability, T/C", "setting": "[10]", "result": 187, "unit": "%"},
      {"measurement": "viability, T/C", "setting": "[11]", "result": 57.6, "unit": "%"},
      {"measurement": "viability, T/C", "setting": "[12]", "result": 16.6, "unit": "%"},
      {"measurement": "viability, T/C", "setting": "[13]", "result": 95.4, "unit": "%"},
      {"measurement": "viability, T/C", "setting": "[14]", "result": 111, "unit": "%"},
      {"measurement": "viability, T/C", "setting": "[15]", "result": 102, "unit": "%"},
      {"measurement": "viability, T/C", "setting": "[16]", "result": 180, "unit": "%"},
      {"measurement": "viability, T/C", "setting": "[17]", "result": 47.8, "unit": "%"},
      {"measurement": "viability, T/C", "setting": "[18]", "result": 13.9, "unit": "%"},
      {"measurement": "viability, T/C", "setting": "[19]", "result": 93.3, "unit": "%"},
      {"measurement": "viability, T/C", "setting": "[20]", "result": 108, "unit": "%"},
      {"measurement": "viability, T/C", "setting": "[21]", "result": 116, "unit": "%"},
      {"measurement": "viability, T/C", "setting": "[22]", "result": 144, "unit": "%"},
      {"measurement": "viability, T/C", "setting": "[23]", "result": 52.4, "unit": "%"},
      {"measurement": "viability, T/C", "setting": "[24]", "result": 14.1, "unit": "%"},
      {"measurement": "viability, T/C", "setting": "[25]", "result": 111, "unit": "%"},
      {"measurement": "viability, T/C", "setting": "[26]", "result": 91.7, "unit": "%"},
      {"measurement": "viability, T/C", "setting": "[27]", "result": 119, "unit": "%"},
      {"measurement": "viability, T/C", "setting": "[28]", "result": 189, "unit": "%"},
      {"measurement": "viability, T/C", "setting": "[29]", "result": 43.2, "unit": "%"},
      {"measurement": "viability, T/C", "setting": "[30]", "result": 11.3, "unit": "%"},
      {"measurement": "viability, T/C", "setting": "[31]", "result": 97.7, "unit": "%"},
      {"measurement": "viability, T/C", "setting": "[32]", "result": 96.1, "unit": "%"},
      {"measurement": "viability, T/C", "setting": "[33]", "result": 113, "unit": "%"},
      {"measurement": "viability, T/C", "setting": "[34]", "result": 152, "unit": "%"},
      {"measurement": "viability, T/C", "setting": "[35]", "result": 34.3, "unit": "%"},
      {"measurement": "viability, T/C", "setting": "[36]", "result": 11.3, "unit": "%"}
    ]}
  ]
}
